The values that follow come from patent US4395417A, “Antihyperlipidemic compositions” (Research Corporation, priority 1980, dated 1983).

Where two headings read alike, the source gives them in different places. A value given as a limit tells only on which side of the number the result lay.

Data set [1] deals with serum cholesterol. Kind of data set: Serum cholesterol of male CF1 mice (Liebermann-Burchard reaction). As to conditions: Mus musculus, ip. It counts as in vivo. On the procedure:
(§1) For hypolipidemic activity, the compounds were tested at 20 mg/kg/day administered I.P. to male CF1 mice (~30 g). On days 9 and 16 blood was collected by tail-vein bleeding. Serum cholesterol was determined by the Liebermann-Burchard reaction. Serum triglyceride levels were determined using the Hycel commercial kits on a separate group of mice, which were bled on day 14.

Data set [2] deals with serum triglyceride. Put plainly: Serum triglyceride levels of male mice (Hycel commercial kits). It counts as in vivo, male CF1 mice. As to conditions: Mus musculus, ip, 336 h. On the procedure: as §1
The target of data set [3] is T1, Acetyl-CoA Synthetase (Mus musculus, UniProt Q9QXG4).
T1 construct: gm wet tissue/30 min; from tissue
T1 sequence (Q9QXG4 whole entry): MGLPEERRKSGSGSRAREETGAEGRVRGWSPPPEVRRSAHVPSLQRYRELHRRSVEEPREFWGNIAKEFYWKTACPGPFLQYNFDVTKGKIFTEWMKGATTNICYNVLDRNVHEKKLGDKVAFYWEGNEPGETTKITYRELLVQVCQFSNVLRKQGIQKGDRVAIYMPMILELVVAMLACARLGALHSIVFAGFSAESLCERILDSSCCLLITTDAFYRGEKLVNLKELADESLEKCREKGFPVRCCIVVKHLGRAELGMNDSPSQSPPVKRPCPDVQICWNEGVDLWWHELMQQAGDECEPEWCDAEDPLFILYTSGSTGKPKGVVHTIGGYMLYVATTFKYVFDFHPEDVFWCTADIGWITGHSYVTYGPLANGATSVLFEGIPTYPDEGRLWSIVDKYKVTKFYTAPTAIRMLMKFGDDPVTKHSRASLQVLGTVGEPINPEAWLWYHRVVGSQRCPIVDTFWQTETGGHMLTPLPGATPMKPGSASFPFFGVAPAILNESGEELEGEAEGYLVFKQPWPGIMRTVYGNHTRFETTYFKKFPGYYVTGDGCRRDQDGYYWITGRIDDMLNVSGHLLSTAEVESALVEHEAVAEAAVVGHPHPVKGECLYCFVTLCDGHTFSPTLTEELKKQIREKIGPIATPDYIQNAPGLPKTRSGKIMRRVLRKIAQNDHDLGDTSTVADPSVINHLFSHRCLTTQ
Kind of data set: In vitro acetyl coenzyme A synthetase activity (method of Goodridge). It counts as biochemical, mice. As to conditions: for Acetyl-CoA Synthetase: Table 2, N = 6, x ± S.D., control 28.5 mg acetyl CoA formed/gm wet tissue/30 min.; for in vitro AcCoA synthetase: Table 3, N = 6, control 10.8 mg/g wet tissue.

In data set [4] the target is T2, Citrate Lyase (Mus musculus, UniProt Q91V92).
T2 construct: 30.5 mg of citrate hydrolyzed/gm wet tissue/30 min; from tissue
T2 sequence (Q91V92 1-1091): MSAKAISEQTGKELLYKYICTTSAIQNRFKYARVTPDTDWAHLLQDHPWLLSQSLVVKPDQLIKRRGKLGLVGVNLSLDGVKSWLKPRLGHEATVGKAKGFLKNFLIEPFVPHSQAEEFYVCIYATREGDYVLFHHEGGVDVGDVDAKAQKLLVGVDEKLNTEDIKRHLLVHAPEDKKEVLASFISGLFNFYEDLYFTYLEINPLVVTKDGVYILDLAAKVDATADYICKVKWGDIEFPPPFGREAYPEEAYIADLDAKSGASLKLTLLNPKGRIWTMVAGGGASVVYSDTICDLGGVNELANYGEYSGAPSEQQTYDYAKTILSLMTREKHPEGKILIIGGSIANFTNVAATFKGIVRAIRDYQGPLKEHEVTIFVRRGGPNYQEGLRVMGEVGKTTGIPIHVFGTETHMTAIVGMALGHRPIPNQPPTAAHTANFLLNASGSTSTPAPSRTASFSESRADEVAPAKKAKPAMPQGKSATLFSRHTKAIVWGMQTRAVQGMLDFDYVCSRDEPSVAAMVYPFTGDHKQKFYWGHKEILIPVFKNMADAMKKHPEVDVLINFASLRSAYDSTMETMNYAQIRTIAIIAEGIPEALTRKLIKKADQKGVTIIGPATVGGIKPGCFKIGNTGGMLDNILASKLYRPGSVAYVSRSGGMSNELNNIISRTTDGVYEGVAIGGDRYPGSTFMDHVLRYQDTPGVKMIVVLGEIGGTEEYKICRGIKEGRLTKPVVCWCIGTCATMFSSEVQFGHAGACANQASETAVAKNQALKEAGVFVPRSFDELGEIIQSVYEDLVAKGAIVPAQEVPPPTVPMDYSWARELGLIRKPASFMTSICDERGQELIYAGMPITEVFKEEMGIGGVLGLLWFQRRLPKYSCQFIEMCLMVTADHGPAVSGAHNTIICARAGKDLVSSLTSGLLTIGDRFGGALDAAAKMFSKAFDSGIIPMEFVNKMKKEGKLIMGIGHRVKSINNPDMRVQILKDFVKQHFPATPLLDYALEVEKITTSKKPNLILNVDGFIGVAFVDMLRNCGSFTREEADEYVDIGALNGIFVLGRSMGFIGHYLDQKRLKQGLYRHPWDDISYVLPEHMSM
Kind of data set: In vitro effect on citrate lyase. Format: biochemical. The settings on record: Table 2, N = 6, x ± S.D., control 30.5 mg of citrate hydrolyzed/gm wet tissue/30 min.

Data set [5] addresses T3, Acetyl-CoA Carboxylase (Mus musculus, UniProt Q5SWU9).
T3 construct: 32,010 dpm/gm wet tissue/30 min; from tissue
Kind of data set: In vitro acetyl coenzyme A carboxylase activity (method of Greenspan and Lowenstein). As to conditions: Table 2, N = 6, x ± S.D., control 32,010 dpm/gm wet tissue/30 min. Format: biochemical.

Data set [6] has as its target T4, Fatty Acid Synthetase (Mus musculus, UniProt P19096).
T4 construct: gm wet tissue/30 min; from tissue
Kind of data set: In vitro effect on fatty acid synthetase. The settings on record: Table 2, N = 6, x ± S.D. Format: biochemical.

Data set [7] can be described thus: Acute toxicity (LD50) in mice. It counts as in vivo. As to conditions: mouse, in vivo. An excerpt: (§2) They also are non-toxic. […] Moreover, there is no evidence that the weight of any of the major organs is altered as a result of treatment with compounds used in the invention.
Data set [8] concerns mice. Kind of data set: Acute toxicity (LD50) in mice. Format: in vivo. As to conditions: 2 g/kg.
Source text: as §2

Data set [9] is described as follows: Size of vas deferens, vesicular or testes after 16 day treatment in mice. Format: in vivo. As to conditions: 16 day treatment at 10 (mg/kg)/day.
For data set [10], the system named is ovariectomized immature females. Kind of data set: Uterotropic effects in ovariectomized immature females. It counts as in vivo, mice. As to conditions: 20 mg/kg.
Data set [11] is described as follows: Hypertrophy of the adrenal. The arrangement: species or system mice. The settings on record: mouse, in vivo.
Where [12] appears, read: 216 h, Table 1, 20 mg/kg/day I.P., male CF1 mice, N = 6, 9th day, control value 118 mg %, read-out: Serum Cholesterol, 9th day.
Where [13] appears, read: 384 h, Table 1, 20 mg/kg/day I.P., male CF1 mice, N = 6, 16th day, control value 122 mg %, read-out: Serum Cholesterol, 16th day.
Setting [14] is: Table 1, 20 mg/kg/day I.P., male mice, N = 6, 14th day, control value 137 mg %, read-out: Serum Triglyceride, 14th day.
Where [15] appears, read: 216 h, Table 3, mice, N = 6, 9th day, control 115 mg %, read-out: serum cholesterol, 9th day.
Where [16] appears, read: 384 h, Table 3, mice, N = 6, 16th day, control 118 mg %, read-out: serum cholesterol, 16th day.
Where [17] appears, read: Table 3, mice, N = 6, control 138 mg %, read-out: serum triglycerides.

T4 sequence (P19096 whole entry): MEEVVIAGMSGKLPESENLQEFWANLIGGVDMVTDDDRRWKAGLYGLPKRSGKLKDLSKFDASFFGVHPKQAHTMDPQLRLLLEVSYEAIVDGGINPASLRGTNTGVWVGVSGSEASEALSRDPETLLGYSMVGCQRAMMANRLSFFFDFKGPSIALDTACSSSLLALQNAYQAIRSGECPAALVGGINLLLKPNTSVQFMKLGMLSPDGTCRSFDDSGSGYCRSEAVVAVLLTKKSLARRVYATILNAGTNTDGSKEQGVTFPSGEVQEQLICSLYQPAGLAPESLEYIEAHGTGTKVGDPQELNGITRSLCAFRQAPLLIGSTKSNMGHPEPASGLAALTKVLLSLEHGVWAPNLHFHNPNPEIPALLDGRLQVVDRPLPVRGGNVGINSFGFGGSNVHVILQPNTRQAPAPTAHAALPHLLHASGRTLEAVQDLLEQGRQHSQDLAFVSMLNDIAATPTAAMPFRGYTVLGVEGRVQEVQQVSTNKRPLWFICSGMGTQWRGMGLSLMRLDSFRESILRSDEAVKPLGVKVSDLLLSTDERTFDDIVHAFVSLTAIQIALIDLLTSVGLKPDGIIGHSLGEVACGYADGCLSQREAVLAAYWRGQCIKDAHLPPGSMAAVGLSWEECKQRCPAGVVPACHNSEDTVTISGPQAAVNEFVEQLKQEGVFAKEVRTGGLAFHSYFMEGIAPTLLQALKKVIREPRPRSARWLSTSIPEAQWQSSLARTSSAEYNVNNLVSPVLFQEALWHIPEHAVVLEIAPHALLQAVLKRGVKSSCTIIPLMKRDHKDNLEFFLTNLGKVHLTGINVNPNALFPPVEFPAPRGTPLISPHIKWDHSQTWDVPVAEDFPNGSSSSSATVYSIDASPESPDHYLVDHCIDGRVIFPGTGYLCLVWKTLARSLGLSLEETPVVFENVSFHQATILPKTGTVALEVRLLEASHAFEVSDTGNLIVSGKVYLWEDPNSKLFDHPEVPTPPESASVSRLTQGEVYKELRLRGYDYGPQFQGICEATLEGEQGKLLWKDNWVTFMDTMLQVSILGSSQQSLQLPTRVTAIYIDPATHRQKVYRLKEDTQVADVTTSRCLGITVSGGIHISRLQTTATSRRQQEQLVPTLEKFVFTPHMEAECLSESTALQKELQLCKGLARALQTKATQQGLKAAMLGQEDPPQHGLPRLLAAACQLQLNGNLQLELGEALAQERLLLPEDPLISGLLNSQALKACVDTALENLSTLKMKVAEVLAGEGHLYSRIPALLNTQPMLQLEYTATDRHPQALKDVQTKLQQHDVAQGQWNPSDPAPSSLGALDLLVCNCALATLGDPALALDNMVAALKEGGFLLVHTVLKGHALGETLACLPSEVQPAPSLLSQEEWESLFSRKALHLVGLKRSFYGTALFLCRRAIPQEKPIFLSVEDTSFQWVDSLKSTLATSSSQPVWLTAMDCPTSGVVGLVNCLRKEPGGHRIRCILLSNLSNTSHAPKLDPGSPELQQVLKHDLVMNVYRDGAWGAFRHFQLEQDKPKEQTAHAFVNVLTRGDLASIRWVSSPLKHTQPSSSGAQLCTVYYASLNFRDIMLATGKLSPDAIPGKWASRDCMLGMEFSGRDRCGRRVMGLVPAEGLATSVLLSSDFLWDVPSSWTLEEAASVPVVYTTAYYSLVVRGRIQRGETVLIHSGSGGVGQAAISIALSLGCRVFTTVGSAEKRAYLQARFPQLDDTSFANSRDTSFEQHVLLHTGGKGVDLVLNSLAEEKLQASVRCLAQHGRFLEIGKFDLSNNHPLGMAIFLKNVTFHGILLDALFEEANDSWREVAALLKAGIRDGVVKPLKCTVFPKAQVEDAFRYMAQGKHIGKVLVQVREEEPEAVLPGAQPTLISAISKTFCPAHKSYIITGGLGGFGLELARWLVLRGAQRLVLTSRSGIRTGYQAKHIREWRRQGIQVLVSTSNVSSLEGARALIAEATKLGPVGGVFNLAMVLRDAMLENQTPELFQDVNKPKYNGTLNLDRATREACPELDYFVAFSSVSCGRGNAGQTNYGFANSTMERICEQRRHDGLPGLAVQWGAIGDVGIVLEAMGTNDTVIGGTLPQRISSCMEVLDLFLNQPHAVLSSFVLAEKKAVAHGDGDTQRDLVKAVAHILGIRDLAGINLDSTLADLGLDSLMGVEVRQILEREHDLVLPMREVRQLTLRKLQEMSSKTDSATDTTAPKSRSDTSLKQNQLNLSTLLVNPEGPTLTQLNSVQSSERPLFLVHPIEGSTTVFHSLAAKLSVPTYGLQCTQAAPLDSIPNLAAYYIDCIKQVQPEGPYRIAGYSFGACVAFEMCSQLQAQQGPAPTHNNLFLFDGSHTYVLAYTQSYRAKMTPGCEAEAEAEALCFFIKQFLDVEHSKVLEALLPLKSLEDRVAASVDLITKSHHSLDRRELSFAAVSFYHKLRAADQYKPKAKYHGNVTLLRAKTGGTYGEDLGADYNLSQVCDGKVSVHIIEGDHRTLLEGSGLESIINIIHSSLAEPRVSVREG

Take `CC(=O)CCN1C(=O)CCC1=O` [1-N--Succinimidobutan-3-one]: the response vs control in vivo at 20 mg/kg/day in data set [1] (setting [12]) amounted to 90 ± 9%; in data set [1] (setting [13]), 88 ± 7%; in data set [2] (setting [14]) it was 79 ± 15%. The “Acetyl-CoA Synthetase” value in [3] worked out at 58 ± 6 % Control. Also, the “Citrate Lyase” value in [4] is recorded as 38 ± 7 % Control. Further, in data set [5], the “Acetyl-CoA Carboxylase” value turned out to be 100 ± 5 % Control. Besides, in data set [6], the “Fatty Acid Synthetase” value came to 81 ± 7 % Control.

Consider `CC(=O)CCN1C(=O)c2ccccc2S1(=O)=O` [1-N--(o-Benzosulfimido)butan-3-one], for which the values for the response vs control in vivo at 20 mg/kg/day in data set [1] (setting [12]), in data set [1] (setting [13]) and in [2] (setting [14]) were 60 ± 8%, 62 ± 6% and 51 ± 7%, respectively. In data set [3], the “Acetyl-CoA Synthetase” value turned out to be 74 ± 9 % Control. The “Citrate Lyase” value in data set [4] was determined as 47 ± 8 % Control. Besides, in data set [5], the “Acetyl-CoA Carboxylase” value is 12 ± 3 % Control. For the same compound, the “Fatty Acid Synthetase” value in data set [6] was 104 ± 7 % Control.

Regarding `CCCCN1C(=O)c2ccccc2C1=O` [N--n-Butylphthalimide], the response vs control in vivo at 20 mg/kg/day was 72 ± 11% in [1] (setting [12]); 72 ± 10% in [1] (setting [15]); 54 ± 6% in data set [1] (setting [13]); 54 ± 6% in [1] (setting [16]); 82 ± 10% in data set [2] (setting [14]); 82 ± 16% in data set [2] (setting [17]). Further, in [3], the “Acetyl-CoA Synthetase” value is listed as 44 ± 11 % Control. Further, the “in vitro AcCoA synthetase” value in [3] came to 82 ± 7 % Control. Moreover, the “Citrate Lyase” value in data set [4] is on record as 72 ± 9 % Control. The “Acetyl-CoA Carboxylase” value in [5] stood at 76 ± 3 % Control. In addition, in data set [6], the “Fatty Acid Synthetase” value is listed as 75 ± 10 % Control.

On to `CC(=O)CCN1C(=O)c2ccccc2C1=O` [1-N--Phthalimidobutan-3-one], for which the response vs control in vivo at 20 mg/kg/day in data set [1] (setting [12]) was 67 ± 11%; in [1] (setting [15]), 67 ± 11%; in data set [1] (setting [13]), 63 ± 7%; in data set [1] (setting [16]), 63 ± 7%; in data set [2] (setting [14]), 58 ± 7%; in [2] (setting [17]) it was 58 ± 7%. For the same compound, the “Acetyl-CoA Synthetase” value in data set [3] is on record as 53 ± 12 % Control. The “in vitro AcCoA synthetase” value in [3] is 53 ± 12 % Control. The “Citrate Lyase” value in [4] came to 34 ± 4 % Control. In data set [5], the “Acetyl-CoA Carboxylase” value came to 17 ± 3 % Control. Besides, in [6], the “Fatty Acid Synthetase” value is 109 ± 7 % Control.

For the compound `O=C1NC(=O)c2ccccc21` [Phthalimide], the response vs control in vivo at 20 mg/kg/day in data set [1] (setting [12]) stood at 63 ± 13%; in data set [1] (setting [13]), 57 ± 7%; in [2] (setting [14]) it was 44 ± 8%. Moreover, the “Acetyl-CoA Synthetase” value in [3] is 70 ± 8 % Control. Besides, the “Citrate Lyase” value in data set [4] was 42 ± 6 % Control. In data set [5], the “Acetyl-CoA Carboxylase” value turned out to be 8 ± 4 % Control. Besides, the “Fatty Acid Synthetase” value in data set [6] is 105 ± 8 % Control.

Take `O=C1NC(=O)c2cccc3cccc1c23` [1,8-Naphthalimide]: the response vs control in vivo at 20 mg/kg/day was 81 ± 6% in [1] (setting [12]), 61 ± 7% in data set [1] (setting [13]) and 87 ± 12% in data set [2] (setting [14]). For the same compound, the “Acetyl-CoA Synthetase” value in data set [3] is listed as 63 ± 9 % Control. For the same compound, the “Citrate Lyase” value in data set [4] was 66 ± 6 % Control. In addition, in data set [5], the “Acetyl-CoA Carboxylase” value is listed as 106 ± 6 % Control. Also, the “Fatty Acid Synthetase” value in data set [6] was 86 ± 8 % Control.

For the compound `CC(=O)CCN1C(=O)c2cccc3cccc(c23)C1=O` [1-N--(1,8-Naphthalimido)butan-3-one], the response vs control in vivo at 20 mg/kg/day was determined as 94 ± 12% in data set [1] (setting [12]), 86 ± 9% in data set [1] (setting [13]) and 54 ± 15% in [2] (setting [14]). In [3], the “Acetyl-CoA Synthetase” value came out at 88 ± 5 % Control. Besides, the “Citrate Lyase” value in data set [4] came out at 60 ± 5 % Control. For the same compound, the “Acetyl-CoA Carboxylase” value in data set [5] is 59 ± 8 % Control. Further, the “Fatty Acid Synthetase” value in [6] is 103 ± 4 % Control.

Regarding `O=C(O)CCN1C(=O)c2ccccc2C1=O` [3-N--Phthalimidopropionic Acid], the response vs control in vivo at 20 mg/kg/day in data set [1] (setting [12]) came to 74 ± 10%; in data set [1] (setting [15]) it was 74 ± 7%; in data set [1] (setting [13]), 55 ± 12%; in data set [1] (setting [16]) it was 55 ± 11%; in [2] (setting [14]), 58 ± 9%; in data set [2] (setting [17]) it was 58 ± 10%. Moreover, the “Acetyl-CoA Synthetase” value in [3] is on record as 57 ± 10 % Control. The “in vitro AcCoA synthetase” value in data set [3] is listed as 57 ± 7 % Control. The “Citrate Lyase” value in data set [4] stood at 87 ± 6 % Control. Besides, in data set [5], the “Acetyl-CoA Carboxylase” value is recorded as 18 ± 4 % Control. For the same compound, in data set [6], the “Fatty Acid Synthetase” value came to 107 ± 7 % Control.

The term LD50 denotes the dose expected to kill half of the subjects tested. On to `CC(=O)CN1C(=O)c2ccccc2C1=O` [1-N--Phthalimidopropan-2-one], for which the response vs control in vivo at 20 mg/kg/day in [1] (setting [12]) was 80 ± 16%; in data set [1] (setting [15]) it was 80 ± 16%; in [1] (setting [13]) it was 67 ± 12%; in data set [1] (setting [16]) it was 67 ± 12%; in data set [2] (setting [14]) it was 48 ± 10%; in [2] (setting [17]) it was 48 ± 10%. Also, the “Acetyl-CoA Synthetase” value in data set [3] amounted to 58 ± 7 % Control. For the same compound, the “in vitro AcCoA synthetase” value in data set [3] is reported as 58 ± 7 % Control. Also, the “Citrate Lyase” value in data set [4] worked out at 76 ± 4 % Control. The “Acetyl-CoA Carboxylase” value in data set [5] is recorded as 24 ± 4 % Control. The “Fatty Acid Synthetase” value in data set [6] is listed as 91 ± 9 % Control. In data set [7], this compound gave an LD50 greater than 2000 mg/kg. Also, the deaths entry in [8] is recorded as “no deaths were observed at this concentration”. Further, the “decrease in the size of the vas deferens, vesicular or testes” value in data set [9] was “no decrease in the size of the vas deferens, vesicular or testes”. Moreover, the uterotropic effects result in [10] is “nor did the drug demonstrate uterotropic effects”. Moreover, the “hypertrophy of the adrenal” value in [11] was “no hypertophy of the adrenal”.
